# Test results published in patent US9439422B2, “Use of macrocyclic picolinamides as fungicides” (DOW AGROSCIENCES LLC, priority 2013, dated 2016).
# Read-outs that look alike come from different tables or passages of the source.
# What was measured:
# [1] = system: Mycosphaerella graminicola; Anamorph: Septoria tritici; test: Leaf Blotch of Wheat (SEPTTR) disease control on wheat seedlings; format: in vivo; settings: Zymoseptoria tritici; for pest or weed control at 100 ppm: rate 100 ppm; for pest or weed control at 121.5 g/ha: rate 121.5 g/H
# Procedure: Evaluation of Fungicidal Activity: Leaf Blotch of Wheat (Mycosphaerella graminicola; Anamorph: Septoria tritici; Bayer Code […]) Technical grades of materials were dissolved in acetone, which were then mixed with nine volumes of water containing 110 ppm Triton X-100. The fungicide solutions were applied onto wheat seedlings using an automated booth sprayer to run-off. All sprayed plants were allowed to air dry prior to further handling. All fungicides were evaluated using the aforementioned method for their activity vs. all target diseases. Wheat leaf blotch and brown rust activity were also evaluated using track spray applications, in which case the fungicides were formulated as EC formulations, containing 0.1% Trycol 5941 in the spray solutions. Wheat plants (variety Yuma) were grown from seed in a greenhouse in 50% mineral soil/50% soil-less Metro mix until the first leaf was fully emerged, with 7-10 seedlings per pot. These plants were inoculated with an aqueous spore suspension of Septoria tritici either prior to or after fungicide treatments. After inoculation the plants were kept in 100% relative humidity (one day in a dark dew chamber followed by two to three days in a lighted dew chamber at 20° C.) to permit spores to germinate and infect the leaf. The plants were then transferred to a greenhouse set at 20° C. for disease to develop. When disease symptoms were fully expressed on the 1st leaves of untreated plants, infection levels were assessed on a scale of 0 to 100 percent disease severity. Percent disease control was calculated using the ratio of disease severity on treated plants relative to untreated plants.
# [2] = system: Puccinia triticina; Synonym: Puccinia recondite f. sp. tritici; test: Wheat Brown Rust (PUCCRT) disease control on wheat seedlings; format: in vivo; settings: for pest or weed control at 100 ppm: rate 100 ppm; for pest or weed control at 121.5 g/ha: rate 121.5 g/H
# Procedure: Technical grades of materials were dissolved in acetone, which were then mixed with nine volumes of water containing 110 ppm Triton X-100. The fungicide solutions were applied onto wheat seedlings using an automated booth sprayer to run-off. All sprayed plants were allowed to air dry prior to further handling. All fungicides were evaluated using the aforementioned method for their activity vs. all target diseases. Wheat leaf blotch and brown rust activity were also evaluated using track spray applications, in which case the fungicides were formulated as EC formulations, containing 0.1% Trycol 5941 in the spray solutions. Wheat plants (variety Yuma) were grown from seed in a greenhouse in 50% mineral soil/50% soil-less Metro mix until the first leaf was fully emerged, with 7-10 seedlings per pot. These plants were inoculated with an aqueous spore suspension of Septoria tritici either prior to or after fungicide treatments. After inoculation the plants were kept in 100% relative humidity (one day in a dark dew chamber followed by two to three days in a lighted dew chamber at 20° C.) to permit spores to germinate and infect the leaf. The plants were then transferred to a greenhouse set at 20° C. for disease to develop. When disease symptoms were fully expressed on the 1st leaves of untreated plants, infection levels were assessed on a scale of 0 to 100 percent disease severity. Percent disease control was calculated using the ratio of disease severity on treated plants relative to untreated plants. Evaluation of Fungicidal Activity: Wheat Brown Rust (Puccinia triticina; Synonym: Puccinia recondite f. sp. tritici; Bayer Code PUCCRT) Wheat plants (variety Yuma) were grown from seed in a greenhouse in 50% mineral soil/50% soil-less Metro mix until the first leaf was fully emerged, with 7-10 seedlings per pot. These plants were inoculated with an aqueous spore suspension of Puccinia triticina either prior to or after fungicide treatments. After inoculation the plants were kept in a dark dew room at 22° C. with 100% relative humidity overnight to permit spores to germinate and infect the leaf. The plants were then transferred to a greenhouse set at 24° C. for disease to develop. Fungicide formulation, application and disease assessment followed the procedures as described in the Example A.
# [3] = 24 h, 1 Day Protectant, read-out: SEPTTR disease control, 1DP
# [4] = 72 h, 3 Day Curative, read-out: SEPTTR disease control, 3DC
# [5] = 24 h, 1 Day Protectant, read-out: PUCCRT disease control, 1DP
# [6] = 72 h, 3 Day Curative, read-out: PUCCRT disease control, 3DC
SMILES,"pest or weed control at 100 ppm [1, 3]","pest or weed control at 100 ppm [1, 4]","pest or weed control at 100 ppm [2, 5]","pest or weed control at 121.5 g/ha [1, 3]","pest or weed control at 121.5 g/ha [1, 4]","pest or weed control at 121.5 g/ha [2, 5]","pest or weed control at 100 ppm [2, 6]","pest or weed control at 121.5 g/ha [2, 6]"
COc1ccnc(C(=O)N[C@H]2COC[C@H](Cc3ccc(C(F)(F)F)cc3)[C@@H](OC(=O)C(C)C)[C@H](C)OC2=O)c1O [Compound F30],80 to 100%,0 to 80%,80 to 100%,–,–,–,–,–
CCOCC(=O)OCOc1c(OC)ccnc1C(=O)N[C@H]1COC[C@H](CC2CCCC2)[C@@H](OCC(C)C)[C@H](C)OC1=O [Compound F121],80 to 100%,80 to 100%,80 to 100%,80 to 100%,80 to 100%,80 to 100%,80 to 100%,80 to 100%
